Laboratory results reported in patent publication US8834852B2, “Composition for oral cavity” (Kao Corporation, priority 2004, dated 2014).

Key:
[1] = tested on: coaggregation of Fusobacterium nucleatum ssp. polymorphum ATCC10953 with Streptococcus sobrinus B13; assay: Coaggregation inhibition test (precipitation of a clump); type: cell-based; set-up: key to Coaggregation inhibition effect: the mixture in which no precipitation of a clump was observed was evaluated that test substance had a coaggregation inhibition effect (+); the mixture in which precipitation was observed was evaluated that the test substance had no coaggregation inhibition effect (−); conditions: 200 μL of 2% (wt/vol %) test substance solution, room temperature for 30 minutes; for precipitation due to coaggregation: result in words
Method: (§1) Streptococcus sobrinus B13 was used as cariogenic bacteria, while Fusobacterium nucleatum ssp. polymorphum ATCC10953 was used as bacteria of the genus Fusobacterium.
After inoculation of Streptococcus sobrinus into a brain heart infusion broth, it was cultured at 37° C. for 24 hours under an anaerobic condition. Fusobacterium nucleatum ssp. polymorphum was, on the other hand, inoculated into a GAM bouillon medium and then cultured at 37° C. for 48 hours under an anaerobic condition. After completion of the cultivation, bacteria were collected by centrifugal separation and washed twice with a coaggregation buffer (1 mM tris(hydroxymethyl)aminomethane, 0.1 mM calcium chloride, 0.1 mM magnesium chloride, and 0.15 M sodium chloride). After washing, Fusobacterium nucleatum and Streptococcus sobrinus were adjusted with the coaggregation buffer to give a turbidity (OD: UV-1600, UV-Visible spectrophotometer (product of Shimadzu Corporation)), at wavelength of 600 nm, of 2.0, whereby bacteria suspensions were prepared. Test substances such as a compound represented by the formula (A) were adjusted in advance with the coaggregation buffer to give a concentration of 2% (wt/vol %). Galactose laurate was synthesized in a known manner (Patent Document 2: JP-A-2000-159675). As the other test substances, lactose, galactose, sucrose, glucose, and fructose (each, product of Wako Pure Chemicals), and β-lauryl glucoside, β-lauryl maltoside and sucrose monolaurate (each, product of Dojindo Laboratories) were employed. In the coaggregation test, 400 μL of the suspension of Fusobacterium nucleatum, 200 μL of the suspension of Streptococcus sobrinus, and 200 μL of the 2% (wt/vol %) solution of the test substance were mixed successively by using a No. 2 RIA tube (product of Asahi Techno Glass).

[2] = tested on: coaggregation of Fusobacterium nucleatum ssp. polymorphum ATCC10953 with Streptococcus sobrinus B13; assay: Percent coaggregation by turbidity change (Vmax, OD 600 nm); type: cell-based; conditions: final concentration 10% (wt/vol %); Vmax of coaggregation buffer control = 100%
Method: as §1
The cariogenic bacteria and bacteria of the genus Fusobacterium were cultured on a brain heart infusion broth (product of Becton, Dickinson and Company) and a GAM broth (product of Nissui Pharmaceutical), respectively, under the conditions of 37° C., and 10% CO2, 10% H2, and 80% N2 during from the logarithmic phase to stationary phase. The respective bacteria were collected by centrifugal separation at 5,000 rpm for 5 minutes. After centrifugal washing (for 5 minutes at 5,000 rpm) three times with a coaggregation buffer (1 mM tris(hydroxymethyl)aminomethane, 0.1 mM calcium chloride, 0.1 mM magnesium chloride, and 0.15 M sodium chloride), they were each adjusted to have a turbidity OD at 600 nm of 2.0.
After addition of 60 μL of each of mannitol, palatinit, erythritol, xylitol, sorbitol and lactitol (product of Wako Pure Chemicals) to a 96-well microtiterplate to give the final concentration of 10% (wt/vol %), 30 μL of the bacteria of the genus Fusobacterium was dispensed and stirred, followed by the addition of 30 μL of the cariogenic bacteria. Then, by using a microplate reader (product of Molecular Devices), the turbidity (OD at 600 nm) was measured at one-minute intervals for 30 minutes and a change ratio Vmax (mOD/min) of the turbidity was calculated. Using the Vmax of a similar mixture containing the coaggregation buffer instead of the test substance as control (100%), the percent coaggregation was calculated. Based on a value thus obtained, the coaggregation reaction was measured.

Row | Compound | Coaggregation inhibition effect [1] | precipitation due to coaggregation [1] | percent coaggregation [2] [%]
1 | O=C(CO)[C@@H](O)[C@H](O)[C@H](O)CO [Fructose, fructose] | − | obvious precipitation due to coaggregation is observed | 
2 | O=C[C@H](O)[C@@H](O)[C@@H](O)[C@H](O)CO [Galactose, galactose] | + | no precipitation due to coaggregation is observed | 
3 | OC[C@H]1O[C@@H](O[C@H]2[C@H](O)[C@@H](O)C(O)O[C@@H]2CO)[C@H](O)[C@@H](O)[C@H]1O (stereo partly shown) [Lactose, lactose] | + | no precipitation due to coaggregation is observed | 
4 | OC[C@H]1O[C@@](CO)(O[C@H]2O[C@H](CO)[C@@H](O)[C@H](O)[C@H]2O)[C@@H](O)[C@@H]1O [Sucrose, sucrose] | − | obvious precipitation due to coaggregation is observed | 
5 | OC[C@@H](O)[C@@H](O)CO [erythritol] |  |  | 35
6 | OC[C@@H](O)[C@@H](O[C@@H]1O[C@H](CO)[C@H](O)[C@H](O)[C@H]1O)[C@H](O)[C@@H](O)CO [lactitol] |  |  | 0
7 | OC[C@@H](O)[C@@H](O)[C@H](O)[C@H](O)CO [mannitol] |  |  | 16
8 | OC[C@@H](O)[C@@H](O)[C@H](O)[C@@H](O)CO [sorbitol] |  |  | 62
9 | OC[C@@H](O)[C@H](O)[C@@H](O)CO [xylitol] |  |  | 20
10 | CCCCCCCCO[C@H]1O[C@H](CO)[C@H](O)[C@H](O)[C@H]1O [α-Octyl galactoside, α-octyl galactoside] | + | no precipitation due to coaggregation is observed | 
11 | CCCCCCCCCCCCO[C@@H]1O[C@H](CO)[C@@H](O)[C@H](O)[C@H]1O [β-Lauryl glucoside, β-lauryl glucoside] | − | obvious precipitation due to coaggregation is observed | 
12 | CCCCCCCCCCCCO[C@@H]1O[C@H](CO)[C@@H](O[C@H]2O[C@H](CO)[C@@H](O)[C@H](O)[C@H]2O)[C@H](O)[C@H]1O [β-Lauryl maltoside, β-lauryl maltoside] | − | obvious precipitation due to coaggregation is observed | 
13 | CCCCCCCCCCCCOCCOCCOCCO[C@@H]1O[C@H](CO)[C@H](O)[C@H](O)[C@H]1O [β-Trioxyethylene dodecylgalactoside, β-trioxyethylene lauryl galactoside] | + | no precipitation due to coaggregation is observed | 
14 | CCCCCCCCO[C@@H]1O[C@H](CO)[C@H](O)[C@H](O)[C@H]1O [β-octyl galactoside] | + | no precipitation due to coaggregation is observed | 
15 | Galactose laurate [Galactose monolaurate] | + | no precipitation due to coaggregation is observed | 
16 | palatinit |  |  | 71
17 | sucrose monolaurate | − | obvious precipitation due to coaggregation is observed | 
